Results published in the supplement of paper PMC11061612.

Legend:
Assay in all cases: Bliss excess, mean over the matrix (fraction); higher = more synergy
[1] = test system: LU-65 (Non-Small Cell Lung Carcinoma)
Procedure, shortened: (§1)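 Bliss excess equals the observed combination effect minus the expected value EA + EB − EA·EB, where EA and EB are the effects of each agent alone. Combination Emax is the second-highest inhibition within the matrix. Inhibition was scaled from CellTiter-Glo 2.0 luminescence, with 0 set by vehicle wells and 1 by blank wells, after 72 hours of two-drug dosing of cells plated in 1536-well plates.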

[2] = test system: PANC-04-03 (Pancreatic Carcinoma)
Procedure, shortened: as §1

[3] = test system: VA-ES-BJ (Other Solid Carcinomas)
Procedure, shortened: as §1

[4] = test system: MIA-PaCa-2 (Pancreatic Carcinoma)
Procedure, shortened: as §1

[5] = test system: OVCAR-4 (Ovarian Carcinoma)
Procedure, shortened: as §1

[6] = test system: SCC-15 (Oral Cavity Carcinoma)
Procedure, shortened: as §1

[7] = test system: TE-1 (Esophageal Squamous Cell Carcinoma)
Procedure, shortened: as §1

[8] = test system: PWR-1E (Non-Cancerous)
Procedure, shortened: as §1

[9] = test system: HSC-4 (Oral Cavity Carcinoma)
Procedure, shortened: as §1

[10] = test system: KMOE-2 (Acute Myeloid Leukemia)
Procedure, shortened: as §1

[11] = test system: C-4-I (Cervical Carcinoma)
Procedure, shortened: as §1

[12] = test system: ACHN (Kidney Carcinoma)
Procedure, shortened: as §1

[13] = test system: EoL-1-cell (Acute Myeloid Leukemia)
Procedure, shortened: as §1

[14] = test system: OE19 (Esophageal Adenocarcinoma)
Procedure, shortened: as §1

[15] = test system: BT-549 (Breast Carcinoma)
Procedure, shortened: as §1

[16] = test system: MLMA (Other Blood Carcinomas)
Procedure, shortened: as §1

[17] = test system: TK10 (Kidney Carcinoma)
Procedure, shortened: as §1

[18] = test system: KYSE-450 (Esophageal Squamous Cell Carcinoma)
Procedure, shortened: as §1

[19] = test system: UACC-62 (Melanoma)
Procedure, shortened: as §1

[20] = test system: KARPAS-299 (T-Cell Non-Hodgkin's Lymphoma)
Procedure, shortened: as §1

Row | Structure (SMILES) | Bliss excess [1] | Bliss excess [2] | Bliss excess [3] | Bliss excess [4] | Bliss excess [5] | Bliss excess [6] | Bliss excess [7] | Bliss excess [8] | Bliss excess [9] | Bliss excess [10] | Bliss excess [11] | Bliss excess [12] | Bliss excess [13] | Bliss excess [14] | Bliss excess [15] | Bliss excess [16] | Bliss excess [17] | Bliss excess [18] | Bliss excess [19] | Bliss excess [20]
1 | Cc1c2c(nn1C)CSCc1cc(n(C)n1)CSc1cc(c3ccccc3c1)OCCCc1c(C(=O)O)n(C)c3c-2c(Cl)ccc13 [AZD5991] + CCN(CCO)CCCOc1ccc2c(Nc3cc(CC(=O)Nc4cccc(F)c4)[nH]n3)ncnc2c1 [AZD2811] (first compound max 1 µM, 7x7, partner max 1 µM) | -0.0258 | -0.0143 | 0.0703 | 0.0738 | 0.0989 | -0.0061 | 0.0705 | 0.151 | -0.0283 | 0.0471 | 0.0332 | 0.0541 | 0.0044 | -0.0098 | 0.0908 | 0.028 | 0.0117 | 0.0499 | -0.0113 | 0.0426
2 | CN(C)CCCOc1ccc(-c2ccc3ncc4c(c3c2)n(C2CCOCC2)c(=O)n4C)cn1 [AZD0156] + C=CCn1c(=O)c2cnc(Nc3ccc(N4CCN(C)CC4)cc3)nc2n1-c1cccc(C(C)(C)O)n1 [AZD1775] (first compound max 1 µM, partner max 1 µM) | -0.0032 | -0.0836 | -0.0235 | -0.0303 | -0.0368 | -0.0799 | -0.0167 | 0.0144 | -0.0418 | -0.039 | -0.0175 | 0.022 | 0.0416 | 0.0012 | -0.0986 | -0.0081 | -0.0318 | -0.0487 | 0.0087 | 0.0063
3 | C=CCn1c(=O)c2cnc(Nc3ccc(N4CCN(C)CC4)cc3)nc2n1-c1cccc(C(C)(C)O)n1 [AZD1775] + C1CN(CCC1(C(=O)N[C@@H](CCO)C2=CC=C(C=C2)Cl)N)C3=NC=NC4=C3C=CN4 [Capivasertib] (first compound max 3 µM, partner max 3 µM) | -0.0688 | 0.083 | -0.0037 | -0.0471 | -0.0627 | -0.0319 | 0.001 | -0.0165 | 0.0018 | 0.0273 | 0.0113 | -0.0283 | -0.0451 | 0.0192 | -0.0628 | -0.0415 | -0.124 | -0.0843 | 0.0375 | -0.0444
4 | CN(CCO)CC[C@H](CSc1ccccc1)Nc1ccc(S(=O)(=O)NC(=O)c2ccc(N3CCC([C@@H](O)c4ccccc4-c4ccc(Cl)cc4)CC3)cc2)cc1S(=O)(=O)C(F)(F)F [AZD4320] + CN(C)CCCOc1ccc(-c2ccc3ncc4c(c3c2)n(C2CCOCC2)c(=O)n4C)cn1 [AZD0156] (first compound max 1 µM, 7x7, partner max 1 µM) | -0.016 | -0.0652 | -0.0379 | -0.0626 | -0.0155 | -0.0538 | -0.033 | -0.0208 | -0.0579 | 0.0446 | -0.0024 | -0.0045 | 0.024 | -0.086 | -0.0354 | 0.0214 | -0.0373 | -0.0485 | -0.0368 | 0.0129
5 | CC1(C)CCC(CN2CCN(c3ccc(C(=O)NS(=O)(=O)c4ccc(NCC5CCOCC5)c([N+](=O)[O-])c4)c(Oc4cnc5[nH]ccc5c4)c3)CC2)=C(c2ccc(Cl)cc2)C1 [Venetoclax] + C[C@@H]1COCCN1C2=NC(=NC(=C2)C3(CC3)[S@](=N)(=O)C)C4=C5C=CNC5=NC=C4 [AZD6738] (first compound max 1 µM, 7x7, partner max 10 µM) | -0.1 | -0.0168 | -0.0185 | -0.0632 | -0.0384 | -0.06 | -0.0131 | -0.0747 | -0.0509 | 0.0071 | -0.0398 | -0.0445 | 0.0267 | -0.0691 | -0.0331 | -0.0275 | -0.102 | -0.061 | -0.0196 | -0.0328
6 | NC1(C(=O)N[C@@H](CCO)c2ccc(Cl)cc2)CCN(c2ncnc3[nH]ccc23)CC1 [Capivasertib] + C[C@@H]1COCCN1C2=NC(=NC(=C2)C3(CC3)[S@](=N)(=O)C)C4=C5C=CNC5=NC=C4 [AZD6738] (first compound max 10 µM, 7x7, partner max 10 µM) | -0.137 | -0.0322 | -0.0088 | -0.04 | -0.0267 | -0.027 | -0.0831 | -0.0534 | -0.0422 | -0.0336 | 0.0234 | -0.0303 | 0.0272 | -0.0619 | -0.0724 | -0.0719 | -0.0604 | -0.0423 | 0.0231 | -0.0163
7 | CC1(C)CCC(CN2CCN(c3ccc(C(=O)NS(=O)(=O)c4ccc(NCC5CCOCC5)c([N+](=O)[O-])c4)c(Oc4cnc5[nH]ccc5c4)c3)CC2)=C(c2ccc(Cl)cc2)C1 [Venetoclax] + C[C@@H](Nc1cc(F)cc(F)c1)c1cc(C(=O)N(C)C)cc2c(=O)cc(N3CCOCC3)oc12 [AZD8186] (first compound max 1 µM, 7x7, partner max 3 µM) | -0.0235 | -0.0374 | -0.0245 | -0.0513 | -0.0186 | -0.0348 | 0.0042 | -0.0112 | -0.0369 | -0.0254 | 0.0078 | -0.0208 | 0.103 | -0.0065 | -0.0328 | -0.0327 | -0.0887 | -0.0457 | 0.0118 | -0.0074
8 | COc1cccc(OCCCN)c1-c1cc(Nc2cnc(C#N)cn2)n[nH]1 [Prexasertib] + C=CCn1c(=O)c2cnc(Nc3ccc(N4CCN(C)CC4)cc3)nc2n1-c1cccc(C(C)(C)O)n1 [AZD1775] (first compound max 1 µM, partner max 1 µM) | 0.0474 | 0.0208 | 0.12 | 0.143 | 0.0205 | 0.0227 | 0.0112 | 0.0706 | -0.0123 | 0.0637 | 0.0337 | -0.0133 | 0.0565 | 0.114 | 0.0433 | 0.0034 | 0.0018 | 0.219 | -0.0118 | -0.0076
9 | CCN(CCO)CCCOc1ccc2c(Nc3cc(CC(=O)Nc4cccc(F)c4)[nH]n3)ncnc2c1 [AZD2811] + C[C@@H]1COCCN1C2=NC(=NC(=C2)C3(CC3)[S@](=N)(=O)C)C4=C5C=CNC5=NC=C4 [AZD6738] (first compound max 1 µM, 7x7, partner max 10 µM) | -0.0777 | -0.0563 | -0.0217 | -0.0797 | -0.0179 | -0.0478 | -0.0042 | -0.0472 | -0.0687 | -0.032 | -0.0263 | -0.0369 | -0.0354 | -0.0264 | 0.0066 | -0.0692 | -0.0811 | -0.0621 | -0.0338 | -0.0024
10 | CCN(CCO)CCCOc1ccc2c(Nc3cc(CC(=O)Nc4cccc(F)c4)[nH]n3)ncnc2c1 [AZD2811] + O=C(c1cc(Cc2n[nH]c(=O)c3ccccc23)ccc1F)N1CCN(C(=O)C2CC2)CC1 [Olaparib] (first compound max 1 µM, 7x7, partner max 10 µM) | 0.0014 | -0.0177 | 0.0206 | 0.0461 | 0.0234 | -0.0376 | -0.031 | 0.0243 | -0.0347 | 0.0545 | 0.0328 | 0.0023 | -0.03 | 0.0454 | -0.0015 | -0.0191 | -0.0391 | -0.0135 | -0.004 | 0.0298
11 | NC1(C(=O)N[C@@H](CCO)c2ccc(Cl)cc2)CCN(c2ncnc3[nH]ccc23)CC1 [Capivasertib] + Cn1cnc2c(F)c(Nc3ccc(Br)cc3Cl)c(C(=O)NOCCO)cc21 [Selumetinib] (first compound max 10 µM, 7x7, partner max 10 µM) | -0.0119 | 0.0247 | 0.0015 | 0.0259 | -0.0254 | -0.0334 | 0.0059 | -0.0246 | -0.0133 | 0.0417 | 0.0609 | 0.0379 | 0.077 | 0.0786 | 0.01 | 0.0032 | 0.0043 | 0.0292 | 0.0562 | 0.117
12 | COc1nnc2ccc(N3CCC(c4ccc(OCCN5CCN(C)C(=O)[C@H]5C)cc4)CC3)nn12 [AZD5153] + CCN(CCO)CCCOc1ccc2c(Nc3cc(CC(=O)Nc4cccc(F)c4)[nH]n3)ncnc2c1 [AZD2811] (first compound max 1 µM, 7x7, partner max 1 µM) | -0.0399 | -0.0667 | -0.0342 | 0.0109 | -0.0568 | -0.0546 | 0.0103 | -0.0096 | -0.129 | -0.0176 | 0.0165 | 0.0017 | 0.003 | -0.0026 | -0.0576 | -0.0434 | -0.0717 | -0.0527 | -0.0564 | -0.0009
13 | NC1(C(=O)N[C@@H](CCO)c2ccc(Cl)cc2)CCN(c2ncnc3[nH]ccc23)CC1 [Capivasertib] + CC(C)n1c(=O)n(C)c2cnc3cc(F)c(-c4ccc(OCCCN5CCCCC5)nc4)cc3c21 [AZD1390] (first compound max 10 µM, 7x7, partner max 0.3 µM) | -0.248 | -0.0997 | -0.0467 | -0.048 | -0.0488 | -0.0796 | -0.0818 | -0.0341 | -0.0891 | -0.0666 | -0.027 | -0.0389 | -0.0173 | -0.0026 | -0.071 | -0.0216 | -0.0798 | -0.0209 | -0.0888 | 0.015
14 | NC1(C(=O)N[C@@H](CCO)c2ccc(Cl)cc2)CCN(c2ncnc3[nH]ccc23)CC1 [Capivasertib] + CCN(CCO)CCCOc1ccc2c(Nc3cc(CC(=O)Nc4cccc(F)c4)[nH]n3)ncnc2c1 [AZD2811] (first compound max 10 µM, 7x7, partner max 1 µM) | -0.215 | -0.0142 | 0.0367 | 0.0031 | -0.0092 | 0.0105 | -0.0347 | -0.0124 | -0.081 | -0.0154 | -0.0492 | -0.0384 | -0.0177 | -0.0513 | -0.0197 | -0.0388 | -0.0434 | 0.0066 | -0.016 | 0.029
